Counter-ions that a name gives are not always drawn. Like-named read-outs stand apart in the source and are kept apart here.
Key:
[1] = system: HTT mRNA; test: Splicing RT-qPCR assay, HTT canonical (CJ) and alternative (AJ) junction mRNA; type: cell-based; settings: Homo sapiens; for EC50: AC50 = 50% response in AJ mRNA increase
How it was run: (§1)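 A673/K562; 11-pt 3-fold dil., top 10 uM final, ≤0.25% DMSO; 24 h, 37 °C, 5% CO2. Lysis, then RT-qPCR of CJ/AJ isoforms, ≥duplicate. ΔCt vs housekeeper (GAPDH/GUSB/PPIA), ΔΔCt vs DMSO, RQ = 2^(−ΔΔCt), expressed as % response.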

[2] = system: MYB mRNA; test: Splicing RT-qPCR assay, MYB canonical (CJ) and alternative (AJ) junction mRNA; type: cell-based; settings: Homo sapiens; for EC50: AC50 = 50% response in AJ mRNA increase
How it was run: as §1

[3] = system: SMN2 mRNA; test: Splicing RT-qPCR gene panel, SMN2 canonical junction (CJ) mRNA; type: cell-based; settings: Homo sapiens; Table 8; larger gene panel, decrease in CJ mRNA levels
How it was run: as §1

[4] = system: Target C mRNA; test: Splicing RT-qPCR gene panel, Target C canonical junction (CJ) mRNA; type: cell-based; settings: Homo sapiens; Table 8; larger gene panel, decrease in CJ mRNA levels
How it was run: as §1

[5] = system: HiBiT-tagged MYB protein; test: HiBiT protein abundance assay, MYB (K562 HiBiT knock-in cells); type: cell-based, human; settings: 24 hours treatment
Procedure: (§2) Compounds described herein were used to screen for effects on quantitative protein abundance using a HiBit assay system (Promega). Quantitative protein abundance was determined by measuring the protein levels of HiBit-tagged protein targets expressed in cell culture via luminescence using the Nano-Glo HiBiT Lytic Detection System, which uses a split complementation assay format to reconstitute NanoBiT enzyme to generate a luminescent signal. A protein abundance assay was developed such that endogenous protein targets could be modified with the HiBiT peptide tag and their abundance could be assessed after compound treatment. Briefly, K562 cell lines containing a HiBiT-modification were treated with various compounds described herein (e.g., compounds of Formulas (I), or (II)). After treatment for 24 hours, the protein abundance of a specific target was determined by measuring luminescence.
(§3) Cells were maintained in IMDM with 10% FBS. Before the assay, cells were diluted with […] growth media (IMDM+[…] media) and were seeded in a 384-well plate at a density of 10000 cells/well (for each cell line listed in Table 6). Each compound was prepared as a 10-point 3-fold serial dilution in DMSO with the top dose at a final concentration of […] in the well. Unmodified K562 cells were added at the previously specified density with DMSO to serve as an assay baseline and positive control (PC) and DMSO only with the respective modified cell lines was added to the negative control (NC) columns. Final DMSO concentration was kept at or below 0.25%. Treated cell plates were placed in an incubator at 37° C. with […] for 24 hours. After 24 hours, 25 μL of Complete HiflitLytic reagent was added to each well at room temperature (e.g. one plate requiring 10 mL Lytic Buffer, 100 μL LgBiT Protein, 200 μL Lytic Substrate), shaken for 5 minutes at 600 RPM, then left to sit for 10 minutes for signal to stabilize before reading on a Spark Cyto plate reader (Tecan) with a 500 ms measurement time.
(§4) To determine compound effects on protein abundance of each target in Table 6, the percent response for each respective cell line was calculated at each compound concentration as follows:
(§5) For the normalized response at each concentration, a four-parameter logistical regression was fit to the data and the response was interpolated at the 50% value to determine a concentration for protein abundance at 50% (IC50) the untreated control.

[6] = system: HiBiT-tagged HTT protein; test: HiBiT protein abundance assay, HTT (K562 HiBiT knock-in cells); type: cell-based, human; settings: 24 hours treatment
Procedure: as §2, §3, §4, §5

[7] = system: K562 (human chronic myelogenous leukemia) cells; test: Cell viability, Cell Titer Glo 2.0 assay, K562 cells; type: cell-based; settings: 72 hours
Procedure: Compounds described herein were screened for toxicity in K562 (human chronic myelogenous leukemia) and SH-SY5Y (human neuroblastoma) cells using a Cell Titer Glo 2.0 assay.
Cells were plated at 500 cells/well (K562 cells) in 45 μL of IMDM supplemented with 10% FBS in a 384-well opaque plate. Wells containing only medium were used as a blank control. Test compounds (e.g., compounds of Formula (I), (III), (IV), (V), or (VI)) were first serially diluted in DMSO then diluted 1:100 with IMDM+10% FBS. The final concentration of DMSO was 0.1% in each well. The cells were incubated for 72 hours at 37° C. and 5% CO2 before assaying with Cell Titer Glo 2.0 reagent.

[8] = system: Target C; test: HiBiT protein abundance assay, Target C (K562 HiBiT knock-in cells); type: cell-based, human; settings: 24 hours treatment
Procedure: • Promega Nano-Glo HiBiT Lytic Detection System (cat #N3030) • Corning 384-well TC-treated microplates (cat #3570) • Synthego Engineered Cells Knock-In Clones
as §3, §4, §5

[9] = Table 7, RT-qPCR, A673 or K562 cells, 24 hours treatment
[10] = Table 7, IC50 = 50% response in CJ mRNA decrease, RT-qPCR, A673 or K562 cells, 24 hours treatment, read-out: HTT CJ
[11] = Table 8, larger gene panel, decrease in CJ mRNA levels, read-out: HTT CJ IC50
[12] = Table 7, IC50 = 50% response in CJ mRNA decrease, RT-qPCR, A673 or K562 cells, 24 hours treatment, read-out: MYB CJ
[13] = Table 8, larger gene panel, decrease in CJ mRNA levels, read-out: MYB CJ IC50

EC50 [1, 9] [nM] | IC50 [1, 10] [nM] | IC50 [1, 11] [nM] | EC50 [2, 9] [nM] | IC50 [2, 12] [nM] | IC50 [2, 13] [nM] | IC50 [3] [nM] | IC50 [4] [nM] | IC50 [5] [nM] | IC50 [6] [nM] | IC50 [7] [nM] | IC50 [8] [nM] | Compound
> 10000 | > 10000 | > 10000 | > 10000 | > 10000 | > 10000 | > 10000 | > 10000 | > 10000 | > 10000 | > 10000 | > 10000 | c1n[nH]cc1-n1cc2sc(C3CCNCC3)cc2n1 [Compound 176]
> 10000 | > 10000 | > 10000 | > 10000 | > 10000 | > 10000 | > 10000 | > 10000 | > 10000 | > 10000 | > 10000 | > 10000 | Cn1cc2cc(-c3cc4cn(C5=CCOCC5)nc4s3)cc(F)c2n1 [Compound 177]
1000 to 10000 | 1000 to 10000 | 1000 to 10000 | 1000 to 10000 | 1000 to 10000 | 1000 to 10000 | 1000 to 10000 | 1000 to 10000 | 1000 to 10000 | 1000 to 10000 | 1000 to 10000 | 1000 to 10000 | Cn1cc2cc(-n3cc4sc(C5CCNCC5)cc4n3)c(O)cc2n1 [Compound 178]
1000 to 10000 | 1000 to 10000 | 1000 to 10000 | > 10000 | > 10000 | > 10000 | 1000 to 10000 | > 10000 | 1000 to 10000 | 1000 to 10000 | 1000 to 10000 | > 10000 | Cc1cn2cc(-n3cc4sc(C5CCNCC5)cc4n3)nc2c(C)n1 [Compound 181]
100 to 1000 | < 100 | 100 to 1000 | 1000 to 10000 | 100 to 1000 | 1000 to 10000 | < 100 | 100 to 1000 | 100 to 1000 | < 100 | 100 to 1000 | 100 to 1000 | Cn1cc2cc(-c3cc4cn([C@H]5CCNC[C@H]5F)nc4s3)cc(F)c2n1 [Compound 182]
1000 to 10000 | 100 to 1000 | 1000 to 10000 | 1000 to 10000 | 1000 to 10000 | 1000 to 10000 | 100 to 1000 | 1000 to 10000 | 100 to 1000 | < 100 | 100 to 1000 | < 100 | Cn1cc2cc(-c3cc4cn([C@@H]5CCNC[C@@H]5F)nc4s3)cc(F)c2n1 [Compound 183]
1000 to 10000 | 1000 to 10000 | 1000 to 10000 | 1000 to 10000 | 1000 to 10000 | 1000 to 10000 | 100 to 1000 | > 10000 | 1000 to 10000 | 1000 to 10000 | 1000 to 10000 | > 10000 | Cn1cc2cc(-c3cc4cn(C5CNC5)nc4s3)cc(F)c2n1 [Compound 184]
< 100 | < 100 | < 100 | 100 to 1000 | 100 to 1000 | 100 to 1000 | < 100 | 100 to 1000 | 100 to 1000 | < 100 | 1000 to 10000 | 100 to 1000 | Cn1cc2cc(-c3cc4cn([C@@H]5CCNC[C@H]5F)nc4s3)cc(F)c2n1 [Compound 187]
1000 to 10000 | 100 to 1000 | 1000 to 10000 | 1000 to 10000 | 1000 to 10000 | 1000 to 10000 | 100 to 1000 | 1000 to 10000 | 1000 to 10000 | 1000 to 10000 | 1000 to 10000 | 1000 to 10000 | Cc1cn2nc(-n3cc4sc(N5CC6(CN(C)C6)C5)cc4n3)cc(C)c2n1 [Compound 188, 2-(2-{2,8-dimethylimidazo[1,2-b]pyridazin-6-yl}thieno [3,2-c]pyrazol-5-yl)-6-methyl-2,6-diazaspiro [3.3]heptane]
> 10000 | > 10000 | > 10000 | > 10000 | > 10000 | > 10000 | 1000 to 10000 | > 10000 | > 10000 | > 10000 | 1000 to 10000 | > 10000 | Cc1cn2nc(-n3cc4sc(N5CCC(NC(C)(C)C)C5)cc4n3)cc(C)c2n1 (stereo not drawn) [Compound 189, N-tert-butyl-1-(2-{2,8-dimethylimidazo[1,2-b]pyridazin-6-yl}thieno[3,2-c]pyrazol-5-yl) pyrrolidin-3-amine]
100 to 1000 | < 100 | 100 to 1000 | 100 to 1000 | 100 to 1000 | 100 to 1000 | < 100 | 100 to 1000 | 1000 to 10000 | 100 to 1000 | 1000 to 10000 | 1000 to 10000 | Cn1cc2cc(-c3cc4cn([C@H]5CCNC[C@@H]5F)nc4s3)cc(F)c2n1 [Compound 190]
100 to 1000 | 100 to 1000 | 100 to 1000 | 1000 to 10000 | 1000 to 10000 | 1000 to 10000 | < 100 | 1000 to 10000 | 1000 to 10000 | < 100 | 1000 to 10000 | 100 to 1000 | Cn1cc2cc(-c3cc4cn(C5CCNCC5)nc4s3)ccc2n1 [Compound 207]
< 100 | < 100 | < 100 | 100 to 1000 | 100 to 1000 | 100 to 1000 | < 100 | 100 to 1000 | 100 to 1000 | < 100 | 100 to 1000 | 100 to 1000 | Cn1cc2cc(-c3cc4cn(C5CCNCC5)nc4s3)c(F)cc2n1 [Compound 210]
1000 to 10000 | 1000 to 10000 | 1000 to 10000 | 1000 to 10000 | 1000 to 10000 | 1000 to 10000 | 100 to 1000 | 1000 to 10000 | 1000 to 10000 | 100 to 1000 | 1000 to 10000 | 1000 to 10000 | Cn1cc2cc(-c3cc4cn(C5CCNCC5)nc4s3)c(C#N)cc2n1 [Compound 211]
1000 to 10000 | 1000 to 10000 | 1000 to 10000 | 1000 to 10000 | > 10000 | 1000 to 10000 | 1000 to 10000 | > 10000 | > 10000 | > 10000 | 1000 to 10000 | > 10000 | Cc1cn2nc(-c3cc4cn(C5CCNCC5)nc4s3)c(O)c2c(C)n1 [Compound 213, 4,6-dimethyl-2-[2-(piperidin-4-yl)thieno[2,3-c]pyrazol-5-yl]pyrazolo[1,5-a]pyrazin-3-ol hydrochloride]
100 to 1000 | 1000 to 10000 | 100 to 1000 | 1000 to 10000 | 1000 to 10000 | 1000 to 10000 | 100 to 1000 | 1000 to 10000 | 1000 to 10000 | 1000 to 10000 | 1000 to 10000 | 1000 to 10000 | Cn1cc2cc(-c3cc4cn(C5CCNCC5)nc4s3)ncc2n1 [Compound 214]
